Data taken from patent US20050043341A1, “3-'Hydroxy-(-4-trifluoromethylphenyl)-methyl-7-spirocyclobutyl-5,6,7 8-tetrahydroquinolin-5-ol derivatives and the use of the same as cholesterol ester transfer protein (cetp) inhibitors” (priority 2001, published 2005).

Tests used:
CETP [1] = biological target: T1, CETP (Homo sapiens, UniProt P11597); assay: CETP fluorescence test; type: biochemical; details: CETP from human plasma, 37° C., 4 hours; read-out: IC50 (nM) Fluor. test
T1 construct: CETP is obtained in partially purified form from human plasma; from tissue; host or cells: human plasma
T1 sequence (P11597 18-493): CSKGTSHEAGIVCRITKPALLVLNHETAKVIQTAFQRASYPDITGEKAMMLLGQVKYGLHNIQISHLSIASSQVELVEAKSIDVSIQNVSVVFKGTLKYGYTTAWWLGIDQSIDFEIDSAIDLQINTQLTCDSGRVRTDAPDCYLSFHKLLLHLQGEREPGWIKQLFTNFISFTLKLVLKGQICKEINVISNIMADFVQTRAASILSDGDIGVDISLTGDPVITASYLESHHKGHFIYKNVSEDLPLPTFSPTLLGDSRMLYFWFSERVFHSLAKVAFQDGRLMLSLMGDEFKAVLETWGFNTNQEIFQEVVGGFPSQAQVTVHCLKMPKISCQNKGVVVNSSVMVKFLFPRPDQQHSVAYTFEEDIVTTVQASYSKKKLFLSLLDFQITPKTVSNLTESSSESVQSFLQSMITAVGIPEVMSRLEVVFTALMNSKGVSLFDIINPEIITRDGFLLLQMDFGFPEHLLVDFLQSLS
Description: (§1) CETP is obtained in partially purified form from human plasma by differential centrifugation and column chromatography and used for the test. To this end, human plasma is adjusted to a density of 1.21 g per ml using NaBr and centrifuged at 4° C. at 50000 rpm for 18 h. The bottom fraction (d>1.21 g/ml) is applied to a Sephadex® Phenyl-Sepharose 4B (Pharmacia) column, washed with 0.15 M NaCl/0.001 M tris HCl pH 7.4 and then eluted with dist. water. Die CETP-active fractions are pooled, dialysed against 50 mM Na acetate pH 4.5 and applied to a CM-Sepharose® (Pharmacia) column. The mixture is then eluted using a linear gradient (0-1 M NaCl). The pooled CETP fractions are dialysed against 10 mM TrisHCl pH 7.4 and then further purified by chromatography on a Mono Q® column (Pharmacia).
Measurement of the CETP-catalysed transfer of a fluorescent cholesterol ester between liposomes—modified according to the procedure of Bisgaier et al., J. Lipid Res. 34, 1625 (1993).
For the production of the donor liposomes, 1 mg of cholesteryl 4,4-difluoro-5,7-dimethyl-4-bora-3a,4a-diaza-s-indacene-3-dodecanoate (cholesteryl BODIPY® FL C12, Molecular Probes) is dissolved in 600 μl of dioxane with 5.35 mg of triolein and 6.67 mg of phosphatidylcholine with gentle warming in an ultrasonic bath and this solution is added very slowly with ultrasonication to 63 ml of 50 mM tris/HCl, 150 mM NaCl, 2 mM EDTA buffer pH 7.3 at RT.
The suspension is then ultrasonicated under an N2 atmosphere for 30 minutes in the Braukson ultrasonic bath at about 50 watts, the temperature being kept at about 20° C.
The acceptor liposomes are obtained analogously from 86 mg of cholesteryl oleate, 20 mg of triolein and 100 mg of phosphatidylcholine dissolved in 1.2 ml of dioxane and 114 ml of above buffer by ultrasonication at 50 watts (20° C.) for 30 minutes.
For testing, a test mix consisting of 1 part of above buffer, 1 part of donor liposomes and 2 parts of acceptor liposomes is used.
80 μl of test mix are treated with 1-3 μg of enriched CETP fraction, obtained from human plasma by means of hydrophobic chromatography, and 2 μl of the substance to be investigated in DMSO and incubated at 37° C. for 4 hours.
The change in the fluorescence at 485/535 nm is a measure of the CE transfer; the inhibition of the transfer in comparison to the control batch without substance is determined.

transgenic hCETP mice = assay: In vivo activity in transgenic hCETP mice (HDL); details: stomach tube
Description: In experiments for the determination of the oral action on lipoproteins and triglycerides, test substance is administered to transgenic mice using a stomach tube (Dinchuck, Hart, Gonzalez, Karmann, Schmidt, Wirak; BBA (1995), 1295, 301). Before the start of the experiment, blood is taken from the mice retroorbitally in order to determine cholesterol and triglycerides in the serum. The serum is obtained as described above for hamsters by incubation at 4° C. overnight and subsequent centrifugation at 6000×g. […] The change in the parameters measured is expressed as the percentage change compared with the starting value.

Syrian golden hamsters = assay: In vivo activity in Syrian golden hamsters (HDL cholesterol); details: perorally
Description: In experiments for the determination of the oral action on lipoproteins and triglycerides, test substance dissolved in DMSO and 0.5% suspended in Tylose are administered perorally by means of a stomach tube to Syrian golden hamsters bred in-house. For the determination of the CETP activity, before the start of the experiment blood is taken by retro-orbital puncture (about 250 μl). The test substances are then administered perorally by means of a stomach tube. The control animals receive identical volumes of solvent without test substance. The feed is then withdrawn from the animals and blood is taken at various times—up to 24 hours after substance administration—by puncture of the retroorbital venous plexus.
Clotting is terminated by incubation at 4° C. overnight, then centrifugation is carried out for 10 minutes at 6000×g. The content of cholesterol and triglycerides in the serum thus obtained is determined with the aid of modified commercially obtainable enzymatic tests (Ecoline 25 Cholesterol 1.14830.0001 Merck Diagnostica, Ecoline 25 Triglycerides 1.14856.0001 Merck Diagnostica). Serum is suitably diluted using physiological saline solution.
10 μl of serum dilution are treated with 200 μl of Ecoline 25 reagent in 96-hole plates and incubated for 10 minutes at room temperature. The optical density is then determined at a wavelength of 490 nm using an automatic plate reader. The triglyceride or cholesterol concentration contained in the samples is determined with the aid of a standard curve measured in parallel.
The determination of the content of HDL cholesterol is carried out after precipitation of the ApoB-containing lipoproteins (Sigma 352-4 HDL cholesterol reagent) according to the manufacturer's instructions.

CETP [2] = biological target: T1, CETP; assay: CETP-SPA test; type: biochemical; details: 3H-cholesterol ester transfer from HDL to biotin-LDL, 37° C., 18 h
Description: as §1
50 ml of fresh human EDTA plasma are adjusted to a density of 1.12 using NaBr and centrifuged at 4° C. in a Ty 65 rotor at 50000 rpm for 18 h. The upper phase is used for the obtainment of cold LDL. The lower phase is dialysed against 3×41 of PDB buffer (10 mM tris/HCl pH 7.4, […], 1 mM EDTA, 0.02% NaN3). Per 10 ml of retentate volume, 20 μl of 3H-cholesterol (Dupont NET-725; 1 μC/μl dissolved in ethanol!) is then added and the mixture is incubated at 37° C. under N2 for 72 h.
The batch is then adjusted to the density 1.21 using NaBr and centrifuged at 20° C. in a Ty 65 rotor at 50000 rpm for 18 h. The upper phase is recovered and the lipoprotein fractions are purified by gradient centrifugation. To this end, the isolated, labelled lipoprotein fraction is adjusted to a density of 1.26 using NaBr. 4 ml each of this solution are covered in centrifuged tubes (SW 40 rotor) with a layer of 4 ml of a solution of density 1.21 and 4.5 ml of a solution of 1.063 (density solutions of PDB buffer and NaBr) and then centrifuged for 24 h at 38000 rpm and 20° C. in the SW 40 rotor. The intermediate layer lying between the density 1.063 and 1.21, containing the labelled HDL, is dialysed against 3×100 volumes of PDB buffer at 4° C.
The retentate contains radiolabelled ^3H-CE-HDL, which, adjusted to about 5×10^6 cmp per ml, is used for the test.
For testing of the CETP activity, the transfer of ^3H-cholesterol ester from human HD lipoproteins to biotinylated LD lipoproteins is measured.
The reaction is ended by addition of streptavidin-SPA®beads (Amersham) and the transferred radioactivity is determined directly in a liquid scintillation counter.
In the test batch, 10 μl of HDL-^3H-cholesterol ester (˜50000 cpm) are incubated at 37° C. for 18 h with 10 μl of biotin-LDL (Amersham) in 50 mM Hepes/0.15 M NaCl/0.1% bovine serum albumin/0.05% NaN3 pH 7.4 containing 10 μl of CETP (1 mg/ml) and 3 μl of solution of the substance to be tested (dissolved in 10% DMSO/1% RSA). 200 μl of the SPA-streptavidin bead solution (TRKQ 7005) are then added, incubated further with shaking for 1 h and then measured in a scintillation counter.
Corresponding incubations with 10 μl of buffer, 10 μl of CETP at 4° C. and 10 μl of CETP at 37° C. serve as controls.
The activity transferred in the control batches with CETP at 37° C. is rated as 100% transfer. The substance concentration at which this transfer is reduced to half is specified as the IC50 value.

IC50 (CETP [1])	IC50 (CETP [2])	Compound	% HDL increase after 4 d (Dose: 4 × 10 mg/kg) (transgenic hCETP mice)	% HDL increase after 24 h (Dose: 2 × 10 mg/kg) (Syrian golden hamsters)
70 nM		CC(C)c1nc2c(c(C3CCCC3)c1[C@@H](O)c1ccc(C(F)(F)F)cc1)[C@@H](O)CC1(CCC1)C2 [Example 69, (5S)-2-Isopropyl-4-cyclopentyl-3-[(S)-hydroxy-(4-trifluoromethylphenyl)-methyl]-7-spirocyclobutyl-5,6,7,8-tetrahydroquinolin-5-ol]	28%	
9 nM	5 nM	O[C@@H](c1ccc(C(F)(F)F)cc1)c1c(C2CCCC2)nc2c(c1-c1ccc(F)cc1)[C@@H](O)CC1(CCC1)C2 [Example 80, (5S)-2-Cyclopentyl-4-(4-fluorophenyl)-3-[(S)-hydroxy-(4-trifluoromethylphenyl)-methyl]-7-spirocyclobutyl-5,6,7,8-tetrahydroquinolin-5-ol]		17%
40 nM		O[C@@H](c1ccc(C(F)(F)F)cc1)c1c(C2CCCC2)nc2c(c1C1CCCC1)[C@@H](O)CC1(CCC1)C2 [Example 71, (5S)-2,4-Dicyclopentyl-3-[(S)-hydroxy-(4-trifluoromethylphenyl)-methyl]-7-spirocyclobutyl-5,6,7,8-tetrahydroquinolin-5-ol]		14%
